Laboratory results taken from patent US8067441B2, “Use of collismycin and derivatives thereof as oxidative stress inhibitors” (Neuropharma, S.A., priority 2005, dated 2011).

How the values were obtained:
Type in all cases: cell-based
[1] = system: SH-SY5Y human neuroblastoma cells; assay: Protection against 6-OHDA-induced cell death, condition B (1 h preincubation, no serum); details: 6-OHDA 50 μM, 24 h, medium without fetal bovine serum
From the text: (§1) The aim of this experiment is to determine the protective effect of the compounds of formula (I) against the toxicity caused by 6-hydroxydopamine (6-OHDA). This toxin induces a cell death similar to which occurs in Parkinson's disease, destroying dopaminergic neurons (“MPTP and 6-hydroxydopamine-induced neurodegeneration as models for Parkinson's disease: neuroprotective strategies”; Grunblatt E, et al.; J Neurol. 2000 April; 247 Suppl 2:1195-102).
(§2) Cells are exposed to the treatment with 6-OHDA and, finally, cell death is measured by LDH quantification. As positive control we used NAC. The assay is performed in two different experimental conditions:
B) NAC and the compound of formula (I) are preincubated during 1 hour before the treatment with 6-OHDA 50 μM during 24 hours. The assay is performed in medium without any fetal bovine serum.

[2] = system: SH-SY5Y human neuroblastoma cells; assay: Protection against hydrogen peroxide-induced cell death (LDH); details: 1 h preincubation, H2O2 100 μM, 24 h
Experimental: The aim of this assay is to determine the neuroprotective effect of the compounds of formula (I), when human neuroblastoma cells are exposed to oxidative stress induced by hydrogen peroxide, which is highly deleterious to the cell and its accumulation causes oxidation of cellular targets such as DNA, proteins, and lipids leading to mutagenesis and cell death.
SH-SY5Y human neuroblastoma cells are seeded into 96-well culture plate at a density of 10^4 cells/well. Cells are exposed to the different concentrations of the compound one hour before the treatment with H2O2 100 μM during 24 h. 5 mM NAC, a known anti-oxidant agent was used as a positive control, and preincubated 1 hour before the treatment with H2O2. After 24 h, the medium is removed and cells attached to the bottom of the well are lysed by adding 50 μl of Triton X-100 1% in Krebs-Hepes during 5 minutes at room temperature.
Cell survival was determined in parallel in the same assay.

[3] = system: SH-SY5Y human neuroblastoma cells; assay: Protection against 6-OHDA-induced cell death, condition A (2 h preincubation, 10% serum); details: 6-OHDA 75 μM, 16 h, medium with 10% foetal bovine serum
From the text: as §1, §2
A) NAC and the compound of formula (I) are preincubated during 2 hours before the treatment with 6-OHDA 75 μM during 16 hours. The assay is performed in medium containing 10% Foetal bovine serum.

COc1cc(/C=N/O)nc(-c2ccccn2)c1 [Caerulomycin A]
minimum concentration showing neuroprotective effect [1]: 1 µM | lowest concentration at which neuroprotective effects were detected [2]: 0.05 µM | minimum concentration at which neuroprotective [3]: 1 µM

COc1cc(-c2ccccn2)nc(CO)c1SC [Collismycin C]
minimum concentration showing neuroprotective effect [1]: 10 µM | lowest concentration at which neuroprotective effects were detected [2]: 10 µM | neuroprotective activity against 6-OHDA (concentration not given) [3]: neuroprotective activity

CSc1cc(C#N)nc(-c2ccccn2)c1 [Compound 1, 4-Methylsulfanyl-[2,2′]bipyridinyl-6-carbonitrile]
lowest concentration at which neuroprotective effects were detected [2]: 5 µM

O/N=C/c1nc(-c2ccccn2)ccc1F [Compound 2, 5-Fluoro-[2,2′]bipyridinyl-6-carbaldehyde oxime]
minimum concentration showing neuroprotective effect [1]: 0.5 µM | lowest concentration at which neuroprotective effects were detected [2]: 0.5 µM | neuroprotective activity against 6-OHDA (concentration not given) [3]: neuroprotective activity

O/N=C/c1nc(-c2cnccn2)ccc1F [Compound 3, 3-Fluoro-6-pyrazin-2-yl-pyridine-2-carbaldehyde oxime]
lowest concentration at which neuroprotective effects were detected [2]: 10 µM | neuroprotective activity against 6-OHDA (concentration not given) [3]: neuroprotective activity
